According to US20250127918A1, “SITE-SELECTIVE CONJUGATION OF A PHARMACEUTICAL AGENT TO AN ANTIBODY USING AN AFFINITY PEPTIDE” (priority 2023, published 2025):

Tests used:
mouse IgG = assay: Azido transfer to mouse IgG in vivo (E1/E2 ELISA of serum); details: subcutaneous injection of 30 mg/kg, WT Swiss mice, serum at 24 h, listed as N3-2-I
Procedure: To evaluate the in vivo azido transfer in mice, two groups of mice were injected subcutaneously or intraperitoneally with the IgG-binder peptides. Mice were sacrificed at 24 hours post-injection, and the blood was collected for ELISA analysis. Sandwich ELISA assays. […] The percentage azido transfer was also compared with intraperitoneal injection of 10 mg/kg Z33-E20Hcy, intraperitoneal injection of 30 mg/kg of Z33-E20Hcy, subcutaneous injection of 30 mg/kg Z33-E20Hcy, and intraperitoneal injection of 30 mg/kg pegylated-Z33-E20Hcy (FIG. 2D).
Two sandwich ELISA assays have been developed in-house, one for the detection of the azido moiety conjugated mouse IgG (mIgG, E1), the other one for the detection of the whole mIgGs (modified and unmodified) in the sample (E2). Both E1 and E2 were run simultaneously on a same plate, using the same initial stock sample, and were processed in parallel at the same time for every steps. […] Absorbances were measured at 450 nm and 540 nm (A0=A450 nm-A540 nm) using a Spark microplate reader (Tecan, USA). The background noise (Ablank) from the serum was subtracted to get the final absorbance of the sample (Asample=A0-Ablank). The ratio Asample (E1)/Asample (E2) was calculated to estimate the percentage of azido transfer on the total amount of IgG in the sample. […]

[1] = Whole-body biodistribution of [89Zr]Zr-labelled affinity peptides after subcutaneous injection (gamma counter); details: mouse, in vivo, sc
Procedure: Additionally, 4 mice were sacrificed at each of these time points for determining the distribution in each organ using a gamma counter.
First, 1, 2, 3 were dissolved in HEPES buffer (100 mM in ultra-trace elemental water; Fisher Scientific, pH 6.7) to prepare a 2 mg/mL solution of each.
The obtained samples were incubated with 37 MBq of [^89Zr]Zr-oxalate (obtained from Mallinckrodt Institute of Radiology, Nuclear Pharmacy Cyclotron; dilution in 0.5 M HEPES, pH 6.7) for 1 hour in the wet ice under mild agitation. Purification was then performed using a Zeba spin column (0.5 mL, 7K MWCO) to remove the non-complexed [^89Zr]Zr-oxalate, for 5 min at 1,200 rcf. Instant-thin layer chromatography (iTLC) was performed to verify the success of the radiolabeling with elution in 0.1 M citrate buffer.

FNMQQQRRFYEALHD PNLNHcyEQRNAKIKSI RDD [PEL-21]
Azido transfer to mouse IgG in vivo (conversion rate) (mouse IgG): 33±12% | Time detectable in the kidneys [1]: up to 240 hours
